The source of these data is patent US20240299429A1, “PREVENTIVE AND THERAPEUTIC AGENT FOR URINARY TRACT INFECTION CONTAINING 1-DEOXYMANNOSE” (SUNUS CO., LTD., priority 2022, published 2024).

Where two headings read alike, the source gives them in different places.

The nature of data set [1]: Urinary concentration after oral administration to human subjects (HPLC). The format is in vivo. The following applies: 1 g oral. As for the experimental part:
HPLC devices: PU2089 plus, AS2055 plus and RI2031 plus (series number) manufactured by JASCO Corporation; MODEL 556 manufactured by GL Sciences Inc. • Columns: MITSUBISHI MCI GEL CK08S; two columns coupled together • Oven temperature: 60° C. • Eluent: Water • Detector: Differential refractometer • Flow rate: 1 ml/minute • Injection volume: 100 μL
The determination of 1-deoxymannose was carried out using a calibration curve produced by using the 1-deoxymannose prepared as above. The determination of mannose was carried out using a calibration curve produced by using special grade mannose as a reagent.
(§1) 1 g of 1-deoxymannose was dissolved in water to prepare a 20% w/w solution as a sample for oral administration. Urine was collected from six human subjects before administration of the sample. The total amount of sample was administered orally to each of the subjects, and the total amount of urine was collected one, two, three, four, six and eight hours after the administration. The urine collected at each of the points in time was subjected to volume measurement, and then filtered through a membrane filter with a pore size of 0.2 μm, followed by measurement of urinary 1-deoxymannose concentration by HPLC analysis.
Mannose, instead of 1-deoxymannose, was orally administered, followed by collection of urine, in the same manner as in Example 1. […]

Data set [2] is described as follows: Urine volume after oral administration. In kind it is in vivo. The following applies: 1 g oral, human, all points in time up to eight hours. The method, then: as §1
Mannose, instead of 1-deoxymannose, was orally administered, followed by collection of urine, in the same manner as in Example 1.
In FIG. 2, the vertical axis indicates the percentage of the urine volume after administration of 1-deoxymannose in Example 1 relative to the urine volume after administration of mannose in Comparative Example 1 taken as 100%, at the respective points in time.

Data set [3] can be described thus: Urinary recovery rate after oral administration. Particulars: urine; 1 g oral, human, up to eight hours after administration. The format is in vivo. The method, then:
as §1
The urinary recovery rate of 1-deoxymannose was determined by dividing the amount of recovered 1-deoxymannose, which was obtained from the collected urine volume and the urinary 1-deoxymannose concentration, by the dose. The urinary recovery rate is expressed by the following formula:
[formula] • Vn: Urine volume [ml] n hour (s) after administration • Cn: Urinary 1-deoxymannose concentration [mg/ml] n hour (s) after administration • M: Dose of 1-deoxymannose (=1000 mg)

Data set [4] has as its system Escherichia coli (NBRC 3301). As to the kind of experiment: Utilization of sugars by Escherichia coli (turbidity in M9 minimal medium). In kind it is cell-based. The following applies: 1% sugar in M9 minimal medium, 37° C., compared with mannose and glucose. The method, then: In order to evaluate the utilization of 1-deoxymannose by Escherichia coli (NBRC 3301), the following experiment was conducted.
M9 minimal medium (obtained by adding MgSO4 and CaCl2 to Difco™ M9 Minimal Salt) containing 2 ml of 1% glucose was used. Escherichia coli (NBRC 3301) was subjected to shaking at 37° C. for 17 hours to prepare a culture solution. 10 μL of the culture solution was added to 2 ml of M9 minimal media containing 1%1-deoxymannose, 1% mannose, and 1% glucose, respectively, followed by shaking culture at 37° C. During culture, 100 μL of the culture solution was serially sampled and measured for its turbidity (600 nm) using a cell with an optical path length of 1 cm. The growth of Escherichia coli was evaluated based on increased turbidity. The results of the measurement are shown in FIG. 3, in which Example 2, Comparative Example 2, and Comparative Example 3 correspond to the culture solution containing 1-deoxymannose, the culture solution containing mannose, and the culture solution containing glucose, respectively.

The target of data set [5] is Fim H lectin (Escherichia coli, UniProt P08191). Particulars: read-out: dissociation constant (KD) against Fim H lectin (converted), cited from earlier work.
Chain of Fim H lectin (P08191 22-300): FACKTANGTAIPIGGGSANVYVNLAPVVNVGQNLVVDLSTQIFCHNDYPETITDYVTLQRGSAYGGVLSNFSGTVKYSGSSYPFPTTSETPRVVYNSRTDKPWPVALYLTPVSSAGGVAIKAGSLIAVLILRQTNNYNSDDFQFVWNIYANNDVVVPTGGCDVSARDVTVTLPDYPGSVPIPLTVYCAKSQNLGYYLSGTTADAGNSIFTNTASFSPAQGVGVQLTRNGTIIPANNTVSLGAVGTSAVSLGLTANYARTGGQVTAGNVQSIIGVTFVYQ

The compound `OC[C@H]1OC[C@@H](O)[C@@H](O)[C@@H]1O` [1-deoxymannose, 1,5-anhydro-D-mannitol] returned a highest urinary concentration in data set [1] (average of six subjects, two hours after administration) of 2.12 mg/mL. Besides, the detection in urine result in data set [1] (six subjects, urine collected one to eight hours after administration, detection limit 0.1 mg/ml) is listed as “detected”. Moreover, the “urine volume versus mannose administration group” value in data set [2] was “larger volume of urine”. In data set [3], the dose excreted was 43.3 ± 9.03%. The “turbidity (600 nm) of Escherichia coli culture, growth” value in data set [4] was “did not have increased turbidity”. Also, the Kd in data set [5] (expressed as mass concentration) and in data set [5] was 1130 nM in each case.
